# Data from patent US10087172B2, “Compounds and their methods of use” (AGIOS PHARMACEUTICALS, INC, priority 2012, dated 2018).
# Biological target: T1, glutaminase (GAC) (Homo sapiens, UniProt O94925)
# T1 sequence (O94925 55-598 isoform O94925-3 limits assumed): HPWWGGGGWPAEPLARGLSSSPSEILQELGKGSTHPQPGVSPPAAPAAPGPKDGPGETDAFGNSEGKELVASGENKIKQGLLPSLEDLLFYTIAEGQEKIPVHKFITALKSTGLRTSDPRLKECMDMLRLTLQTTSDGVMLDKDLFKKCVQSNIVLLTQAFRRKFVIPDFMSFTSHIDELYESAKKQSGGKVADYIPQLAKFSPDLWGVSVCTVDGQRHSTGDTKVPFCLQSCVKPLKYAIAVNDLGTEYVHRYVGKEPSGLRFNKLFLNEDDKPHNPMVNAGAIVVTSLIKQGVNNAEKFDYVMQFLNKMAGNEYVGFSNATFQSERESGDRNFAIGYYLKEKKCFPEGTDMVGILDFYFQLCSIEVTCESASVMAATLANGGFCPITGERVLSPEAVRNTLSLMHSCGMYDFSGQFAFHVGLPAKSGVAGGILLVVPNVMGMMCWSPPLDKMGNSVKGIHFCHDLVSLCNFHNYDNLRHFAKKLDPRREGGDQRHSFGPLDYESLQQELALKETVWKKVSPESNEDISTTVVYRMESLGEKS
# Assay: Glutaminase (GAC) coupled endpoint enzymatic assay (glutamate dehydrogenase/diaphorase/resazurin, Ex544/Em590)
# Assay type: biochemical
# Conditions: inhibition of glutaminase, tested in an assay of Example A or Example B; class symbols A-E
# Text: In certain embodiments, exemplary compounds of Formula I include the compounds described in Table 1 and in the Examples. A compound described herein may be tested for its ability to inhibit glutaminase, e.g., by an assay as described in the Examples. For simplicity, the inhibition activity of these compounds is represented as an IC50 tested in an assay of Example A or Example B in Table 1. […] “N/A” refers to compounds wherein the IC50 is unavailable.
# In this example, the enzymatic activity of glutaminase is measured through a coupled endpoint assay. Glutamine and phosphate are supplied to GAC at a concentration equal to Km and AC50, respectively, and GAC concentration is adjusted to give a linear reaction for 60 minutes. The glutamate produced is converted to 2-OG by a kinetic excess of glutamate dehydrogenase. This second step is configured for 2× Km for NAD, since excess NAD is inhibitory. However, a kinetic excess of the third coupling enzyme, diaphorase, recycles NAD from NADH to keep the NAD concentration constant during the timecourse of the assay. Diaphorase, also supplied in kinetic excess, oxidizes NADH produced by GDH back to NAD with the concomitant reduction of rezasurin to the highly fluorescent resorufin. Resorufin in measured after the assay is stopped with SDS by Ex544/Em590. A reduction in the signal indicates inhibition of some component of the coupled enzyme system. Prospective hits are counterscreened against GDH/diaphorase alone to remove hits to the coupling enzyme system in a second assay.
# 2. Buffers 2× Buffer (300 mM NaCl, 100 mM HEPES pH 8.5, 0.1% BSA, 0.5 mM EDTA, 100 mM sodium phosphate pH 8.5) 5× Substrate Mix (1× Buffer final concentration, with 13 mM glutamine, 100 μM resazurin, 50 μg/ml diaphorase) 1.2× Enzyme Mix (1× Buffer final concentration, with 0.875 μg/ml GAC, 1.56 mM NAD, 6.25 units/ml GDH) Stop Mix (6% SDS in ddH2O) Reaction Procedure 1. Add 1 μl compound in 100% DMSO 2. Add 40 μl of Enzyme Mix and incubate for 60 minute at room temperature 3. Add 10 μl of Substrate Mix to start reaction 4. Stop reaction with 25 μl of 6% SDS and read Ex544 Em 590
row,Compound,IC50 [nM]
1,O=C(Cc1cnccn1)Nc1nnc([C@H]2CCC[C@H](c3nnc(NC(=O)Cc4cnccn4)s3)C2)s1 (relative stereo) [Compound 76],< 100
2,"N#Cc1cccnc1CC(=O)Nc1nnc([C@H]2CCC[C@H](c3nnc(NC(=O)Cc4ncccc4C#N)s3)C2)s1 (relative stereo) [Compound 113, N,N′-(5,5′-(trans-cyclohexane-1,3-diyl)bis(1,3,4-thiadiazole-5,2-diyl))bis(2-(3-cyanopyridin-2-yl)acetamide)]",< 100
3,"CN(C)c1cccnc1CC(=O)Nc1nnc([C@H]2CCC[C@H](c3nnc(NC(=O)Cc4ncccc4N(C)C)s3)C2)s1 (relative stereo) [Compound 115, N,N′-(5,5′-(trans-cyclohexane-1,3-diyl)bis(1,3,4-thiadiazole-5,2-diyl))bis(2-(3-(dimethylamino)pyridin-2-yl)acetamide)]",500 to 1000
4,"O=C(Cc1ccccn1)Nc1nnc([C@H]2CCC[C@H](c3nnc(NC(=O)Cc4ccccn4)s3)C2)s1 (single isomer, unassigned) [Compound 14]",< 100
5,"COc1ccccc1CC(=O)Nc1nnc([C@H]2CCC[C@H](c3nnc(NC(=O)Cc4ccccc4OC)s3)C2)s1 (single isomer, unassigned) [Compound 70]",< 100
6,"COc1cccc(CC(=O)Nc2nnc([C@H]3CCC[C@H](c4nnc(NC(=O)Cc5cccc(OC)c5)s4)C3)s2)c1 (single isomer, unassigned) [Compound 71]",< 100
7,"N#Cc1cccc(CC(=O)Nc2nnc([C@H]3CCC[C@H](c4nnc(NC(=O)Cc5cccc(C#N)c5)s4)C3)s2)c1 (single isomer, unassigned) [Compound 73]",< 100
8,"COc1cccc(CC(=O)Nc2nnc([C@H]3CCC[C@H](c4nnc(NC(=O)Cc5cccc(OC)n5)s4)C3)s2)n1 (single isomer, unassigned) [Compound 84]",< 100
9,"CC(C)C(=O)Nc1nnc([C@H]2CCC[C@H](c3nnc(NC(=O)C(C)C)s3)C2)s1 (single isomer, unassigned) [Compound 98]",100 to 500
10,"CC(=O)Nc1nnc([C@H]2CCC[C@H](c3nnc(NC(C)=O)s3)C2)s1 (single isomer, unassigned) [Compound 99]",100 to 500
11,"N#Cc1ccc(CC(=O)Nc2nnc([C@H]3CCC[C@H](c4nnc(NC(=O)Cc5ccc(C#N)cn5)s4)C3)s2)nc1 (single isomer, unassigned) [Compound 101]",< 100
12,"CN(C)c1cccc(CC(=O)Nc2nnc([C@H]3CCC[C@H](c4nnc(NC(=O)Cc5cccc(N(C)C)n5)s4)C3)s2)n1 (single isomer, unassigned) [Compound 105]",< 100
13,"CC(=O)Nc1ccc(CC(=O)Nc2nnc([C@H]3CCC[C@H](c4nnc(NC(=O)Cc5ccc(NC(C)=O)cc5)s4)C3)s2)cc1 (single isomer, unassigned) [Compound 106]",< 100
14,"COc1ccccc1CC(=O)Nc1nnc([C@@H]2CC[C@@H](c3nnc(NC(=O)Cc4ccccc4OC)s3)C2)s1 (stereo in doubt) [Compound 291, N,N′-(5,5′-((1S,3S)-cyclopentane-1,3-diyl)bis(1,3,4-thiadiazole-5,2-diyl))bis(2-(2-methoxyphenyl)acetamide)]",< 100
15,O=C(Cc1ccc2c(c1)OCO2)Nc1nnc([C@H]2CCC[C@H](c3nnc(NC(=O)Cc4ccc5c(c4)OCO5)s3)C2)s1 [Cmpd 86],< 100
16,"O=C(Cc1ccccn1)Nc1nnc(CC2CCC(Cc3nnc(NC(=O)Cc4ccccn4)s3)CC2)s1 [Compound 2, N,N′-(5,5′-((1R,4R)-cyclohexane-1,4-diylbis(methylene)bis(1,3,4-thiadiazole-5,2-diyl))bis(2-(pyridin-2-yl)acetamide)]",500 to 1000

row,Compound,IC50 [nM]
1,"O=C(Cc1ccccn1)Nc1nnc([C@@H]2CCC[C@@H](c3nnc(NC(=O)Cc4ccccn4)s3)C2)s1 [Compound 17, N,N′-(5,5′-((1R,3R)-cyclohexane-1,3-diyl)bis(1,3,4-thiadiazole-5,2-diyl))bis(2-(pyridin-2-yl)acetamide)]",1000 to 2000
2,"O=C(Cc1ncccn1)Nc1nnc([C@H]2CCC[C@H](c3nnc(NC(=O)Cc4ncccn4)s3)C2)s1 [Compound 27, N,N′-(5,5′-((1S,3S)-cyclohexane-1,3-diyl)bis(1,3,4-thiadiazole-5,2-diyl))bis(2-(pyrimidin-2-yl)acetamide)]",< 100
3,"O=C(Cc1cccnc1)Nc1nnc([C@H]2CCC[C@H](c3nnc(NC(=O)Cc4cccnc4)s3)C2)s1 [Compound 28, N,N′-(5,5′-((1S,3S)-cyclohexane-1,3-diyl)bis(1,3,4-thiadiazole-5,2-diyl))bis(2-(pyridin-3-yl)acetamide)]",< 100
4,"O=C(Cc1ccncc1)Nc1nnc([C@H]2CCC[C@H](c3nnc(NC(=O)Cc4ccncc4)s3)C2)s1 [Compound 29, N,N′-(5,5′-((1S,3S)-cyclohexane-1,3-diyl)bis(1,3,4-thiadiazole-5,2-diyl))bis(2-(pyridin-4-yl)acetamide)]",< 100
5,"Cc1cc(CC(=O)Nc2nnc([C@H]3CCC[C@H](c4nnc(NC(=O)Cc5cc(C)no5)s4)C3)s2)on1 [Compound 30, N,N′-(5,5′-((1S,3S)-cyclohexane-1,3-diyl)bis(1,3,4-thiadiazole-5,2-diyl))bis(2-(3-methylisoxazol-5-yl)acetamide)]",< 100
6,"CN(C)c1ccc(CC(=O)Nc2nnc([C@H]3CCC[C@H](c4nnc(NC(=O)Cc5ccc(N(C)C)cc5)s4)C3)s2)cc1 [Compound 31, N,N′-(5,5′-((1S,3S)-cyclohexane-1,3-diyl)bis(1,3,4-thiadiazole-5,2-diyl))bis(2-(4-(dimethylamino)phenyl)acetamide)]",< 100
7,O=C(Cc1cc2ccccc2[nH]1)Nc1nnc([C@H]2CCC[C@H](c3nnc(NC(=O)Cc4cc5ccccc5[nH]4)s3)C2)s1 [Compound 34],100 to 500
8,"CN(C)c1cccc(CC(=O)Nc2nnc([C@H]3CCC[C@H](c4nnc(NC(=O)Cc5cccc(N(C)C)c5)s4)C3)s2)c1 [Compound 35, N,N′-(5,5′-((1S,3S)-cyclohexane-1,3-diyl)bis(1,3,4-thiadiazole-5,2-diyl))bis(2-(3-(dimethylamino)phenyl)acetamide)]",< 100
9,"CCCC(=O)Nc1nnc([C@H]2CCC[C@H](c3nnc(NC(=O)CCC)s3)C2)s1 [Compound 37, N,N′-(5,5′-((1S,3S)-cyclohexane-1,3-diyl)bis(1,3,4-thiadiazole-5,2-diyl))dibutyramide]",100 to 500
10,"O=C(Nc1nnc([C@H]2CCC[C@H](c3nnc(NC(=O)c4ccccc4)s3)C2)s1)c1ccccc1 [Compound 39, N,N′-(5,5′-((1S,3S)-cyclohexane-1,3-diyl)bis(1,3,4-thiadiazole-5,2-diyl))dibenzamide]",1000 to 2000
11,"CCC(=O)Nc1nnc([C@H]2CCC[C@H](c3nnc(NC(=O)CC)s3)C2)s1 [Compound 40, N,N′-(5,5′-((1S,3S)-cyclohexane-1,3-diyl)bis(1,3,4-thiadiazole-5,2-diyl))dipropionamide]",100 to 500
12,CC(=O)Nc1nnc([C@H]2CCC[C@H](c3nnc(NC(C)=O)s3)C2)s1 [Compound 41],100 to 500
13,"O=C(Cc1cccc(Cl)c1)Nc1nnc([C@H]2CCC[C@H](c3nnc(NC(=O)Cc4cccc(Cl)c4)s3)C2)s1 [Compound 43, N,N′-(5,5′-((1S,3S)-cyclohexane-1,3-diyl)bis(1,3,4-thiadiazole-5,2-diyl))bis(2-(3-chlorophenyl)acetamide)]",100 to 500
14,"O=C(/C=C/c1ccccn1)Nc1nnc([C@H]2CCC[C@H](c3nnc(NC(=O)/C=C/c4ccccn4)s3)C2)s1 [Compound 45, (2E,2′E)-N,N′-(5,5′-((1S,3S)-cyclohexane-1,3-diyl)bis(1,3,4-thiadiazole-5,2-diyl))bis(3-(pyridin-2-yl)acrylamide)]",100 to 500
15,"CSCCC(=O)Nc1nnc([C@H]2CCC[C@H](c3nnc(NC(=O)CCSC)s3)C2)s1 [Compound 46, N,N′-(5,5′-((1S,3S)-cyclohexane-1,3-diyl)bis(1,3,4-thiadiazole-5,2-diyl))bis(3-(methylthio)propanamide)]",100 to 500
